We go through 1 compound from patent US4434290A, “Pyrido (4,3-B) carbazoles substituted in the 1 position by a polyamine chain” (priority 1978, dated 1984).

Experiment [1] relates to Friend's virus (VFA). Put plainly: Anemia inducing Friend's virus, measurement of survival time (Table XVIII). The format is in vivo, mice. To be noted: 15 mg/kg; for Death interval / Mean survival time / ILS %: D+1. The source says:
The following experiments related to the treatment of mice inoculated by the virus of Friend's leukemia.
In these experiments DBA2, male mice, aged from 2 to 3 months, of weight around 20 g, were used.
An anemia inducing strain of Friend's virus (VFA) maintained for several years in the laboratory was used. The viral stock was constituted by an acellular supernatant liquor obtained by the centrifugation of a ground product of leukemic spleens, carried out in an 0.5 M PBS-saccharose solution. The assay of the stock was done in vivo by the method described by JASMIN et al [J. Nat. Cancer Inst. 1974,53, 469-474]. The measurement is expressed in SD50 (50% spleen enlarging dose).
In another series of tests, the mortality of the mice, in which the Friend's virus was injected (VFA) by the intraperitoneal route (dilution 1/800) and the death intervalwere determined, the mean survival time and the percentage of increased life span for the compound 27 according to the invention inoculated on day D+1 at the dose of 15 mg/kg were calculated.

Experiment [2] concerns leukemia L1210. The experiment can be described thus: Leukemia L1210 in vivo, dose/effect relationship (Table XIV). Also noted: species or system mice. As to conditions: for Death interval / ILS % / Mean survival time: 10^5 cells; for Death interval / ILS % / Mean survival time / Surviving mice: D+1; for Surviving mice: groups of six mice.
Experimental: The properties were determined by the curative action inoculated experimental leukemia L1210. This leukemia was maintained on B6 D2 Fl (C 57 Bl/6×DBA/2) Fl mice in the proportion of 6 or 10 mice per experimental batch. The compounds to be tested were injected by the intraperitoneal route one or several days after inoculation of the cells (1 injection only). The death interval was determined, the first figure of the Table indicating the date of the first mouse death and the second the date of the last mouse death. The mean survival time was also measured (MST). A characteristic value is the percentage of increased life span (ILS %). This value (Cancer. Res. 1971, 31, 1883-1887) is the ratio: [formula] where S^t =survival of treated animals and
S^c =survival of control animals.
The study was carried out on experimental groups of six mice by the previously defined method. 10^5 cells were injected at day Do. […] The death interval was determined, the mean survival time was measured (MST) and the percentage of increased life span was calculated (ILS %) by the above-defined formula.
[3] abbreviates: VFA 1/800, % of leukemias = 99.8.
Where [4] appears, read: VFA 1/800, % of leukemias = 100%.

For the compound `CCN(CC)CCCNc1nccc2c(C)c3[nH]c4ccc(OC)cc4c3c(C)c12` [Compound 27], the Death interval in experiment [1] (setting [3]) is recorded as 20-64; in experiment [1] (setting [4]), 48-72; in experiment [2] (5 mg/kg), 16-24; in experiment [2] (10 mg/kg) it was 14-21; in experiment [2] (15 mg/kg), 13-31; in experiment [2] (20 mg/kg), 15-25. In addition, the Mean survival time in experiment [1] (setting [3]) is 42.2; in experiment [1] (setting [4]), 59.5; in experiment [2] (5 mg/kg), 19.3; in experiment [2] (10 mg/kg), 16.8; in experiment [2] (15 mg/kg), 21; in experiment [2] (20 mg/kg), 18.8. In addition, the ILS % is reported as 40% in experiment [1] (VFA 1/800, % of leukemias = 99.8, on the surviving mice); 143.85% in experiment [1] (setting [4]); 80.4% in experiment [2] (5 mg/kg); 57% in experiment [2] (10 mg/kg); 96.3% in experiment [2] (15 mg/kg); 75.7% in experiment [2] (20 mg/kg). The Survive in experiment [1] (VFA 1/800, % of leukemias = 99.8, group of 10 mice) is reported as 0. The “dose/effect relationship” value in experiment [2] (5-20 mg/kg, day D+1) is given as “proportional to the dose inoculated”. In addition, the Surviving mice is listed as 0 mice in experiment [2] (5 mg/kg), 0 mice in experiment [2] (10 mg/kg), 0 mice in experiment [2] (15 mg/kg) and 1 mice in experiment [2] (20 mg/kg).
